The target of assay [1] is T1, phosphorylated AfsR (phos-AfsR) (Streptomyces coelicolor, UniProt P25941).
T1 construct: full-length, 993 residues, pET28a (His-tagged), E. coli BL21(DE3); dephosphorylated, then phosphorylated in vitro by AfsKΔC (pS22, pT337, pS391, pT506, pS953 by MS), SEC
As to the kind of experiment: in vitro MangoIII transcription assay after preincubation. Type of assay: biochemical. The note with it: 500 nM phosphorylated AfsR, 1 mM ATPγS preincubation; activator.

Assay [2] concerns the target T2, AfsR (dephosphorylated AfsR) (Streptomyces coelicolor, UniProt P25941).
T2 construct: full-length, 993 residues, pET28a (His-tagged), E. coli BL21(DE3), Ni-NTA and SEC; wild type treated with lambda phosphatase (E. coli protein carries pT337); mainly monomer
The description is as above. Type of assay: biochemical. The note with it: 500 nM dephosphorylated AfsR, 1 mM ATPγS preincubation 10 min 30 °C, RNAP-σHrdB, RbpA, CarD; activator.

T1 sequence (P25941 whole entry): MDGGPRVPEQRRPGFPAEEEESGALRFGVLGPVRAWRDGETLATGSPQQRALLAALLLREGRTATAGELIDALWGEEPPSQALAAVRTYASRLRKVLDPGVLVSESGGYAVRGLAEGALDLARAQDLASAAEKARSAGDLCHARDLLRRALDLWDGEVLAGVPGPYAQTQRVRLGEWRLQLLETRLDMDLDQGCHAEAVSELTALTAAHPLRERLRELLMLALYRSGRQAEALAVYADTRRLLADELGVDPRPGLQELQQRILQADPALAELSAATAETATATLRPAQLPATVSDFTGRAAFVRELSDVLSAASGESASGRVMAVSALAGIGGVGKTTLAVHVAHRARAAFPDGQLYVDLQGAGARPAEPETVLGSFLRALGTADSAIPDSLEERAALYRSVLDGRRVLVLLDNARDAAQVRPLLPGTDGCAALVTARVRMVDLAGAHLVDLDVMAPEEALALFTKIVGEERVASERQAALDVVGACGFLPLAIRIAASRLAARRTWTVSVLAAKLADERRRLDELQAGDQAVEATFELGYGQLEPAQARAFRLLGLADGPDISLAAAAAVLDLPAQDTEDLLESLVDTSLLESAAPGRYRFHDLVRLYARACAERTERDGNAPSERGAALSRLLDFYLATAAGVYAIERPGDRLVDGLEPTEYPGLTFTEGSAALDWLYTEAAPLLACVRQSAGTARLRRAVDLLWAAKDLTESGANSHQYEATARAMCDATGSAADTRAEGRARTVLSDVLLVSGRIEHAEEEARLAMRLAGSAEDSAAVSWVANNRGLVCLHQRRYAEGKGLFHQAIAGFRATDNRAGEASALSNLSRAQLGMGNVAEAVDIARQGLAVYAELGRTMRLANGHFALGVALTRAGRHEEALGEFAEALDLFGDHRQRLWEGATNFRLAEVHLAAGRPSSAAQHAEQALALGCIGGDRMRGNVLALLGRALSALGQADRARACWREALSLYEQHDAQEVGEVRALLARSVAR
T2 sequence (P25941 whole entry): as above

For the molecule `Nc1ncnc2c1ncn2[C@@H]1O[C@H](COP(=O)(O)OP(=O)(O)OP(O)(O)=S)[C@@H](O)[C@H]1O` [ATPγS], the transcription activation result in assay [1] was “exhibits partial activation in response to non-hydrolysable ATPγS”; in assay [2] it was “comparable effect of preincubation with a non-hydrolyzable ATP analogue, ATPγS”.

The values above are taken from PMC10936776, “Structural and functional characterization of AfsR, an SARP family transcriptional activator of antibiotic biosynthesis in Streptomyces” (PLOS Biology, 2024).
